Source: patent US10442804B2, “Compounds for the treatment of hepatitis B virus infection” (Gilead Sciences, Inc., priority 2017, dated 2019)
Read-outs that look alike come from different tables or passages of the source.

Tests used:
MT-4 cytotoxicity assay = format: cell-based, human; settings: human
[1] = tested on: HBV-infected NTCP-HepG2 cells, secreted HBsAg; experiment: microbe, parasite or virus in culture; format: cell-based, hepatitis B virus (genotype D, AD38-derived); settings: Hepatitis B virus, 120 h, secreted HBsAg in supernatant after 5 days; geometric mean of minimum four determinations; read-out: NTCP HBsAg EC50
Procedure, shortened: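 NTCP-HepG2 cells were infected with genotype D HBV at 4000 genome equivalents/cell, then seeded 4 days post-infection with serially diluted compounds (1% DMSO) for 5 days. Supernatant HBsAg was measured by chemiluminescent MSD immunoassay. EC50 from four-parameter fit, geometric mean of ≥4 determinations.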

[2] = five days, Cell Titer Glo luminescence, read-out: MT-4 CC50

Structure (SMILES): COCCCOc1cc2c(cc1Cl)-c1cc(=O)c(C(=O)O)cn1N1CC(C)(C)CCC21 (centres unmarked) [Example 17, 13-chloro-12-(3-methoxypropoxy)-8,8-dimethyl-2-oxo-2,7,8,9,10,10a-hexahydrodipyrido[2,1-a:1′,2′-c]phthalazine-3-carboxylic acid]
- CC50 at 5 days (MT-4 cytotoxicity assay; [2]): > 10000 nM
- EC50 [1]: 110 nM

Structure (SMILES): COCCCOc1cc2c(cc1OC(F)F)-c1cc(=O)c(C(=O)O)cn1N1C2CCC1(C)C (centres unmarked) [Example 18, 11-(difluoromethoxy)-12-(3-methoxypropoxy)-3,3-dimethyl-8-oxo-2,3,8,13b-tetrahydro-1H-pyrido[2,1-a]pyrrolo[1,2-c]phthalazine-7-carboxylic acid]
- CC50 at 5 days (MT-4 cytotoxicity assay; [2]): > 10000 nM
- EC50 [1]: 4 nM

Structure (SMILES): COCc1cc2c(cc1C#CC(C)(C)OC)[C@H]1CCC(C)(C)N1n1cc(C(=O)O)c(=O)cc1-2 [Example 97, (R)-12-(3-methoxy-3-methylbut-1-yn-1-yl)-11-(methoxymethyl)-3,3-dimethyl-8-oxo-2,3,8,13b-tetrahydro-1H-pyrido[2,1-a]pyrrolo[1,2-c]phthalazine-7-carboxylic acid]
- CC50 at 5 days (MT-4 cytotoxicity assay; [2]): > 10000 nM
- EC50 [1]: 8.6 nM

Structure (SMILES): COCCCOc1cc2c(cc1Cl)-c1cc(=O)c(C(=O)O)cn1[C@@H]1[C@H]2CCC1(C)C (single isomer, unassigned) [Example 34]
- CC50 at 5 days (MT-4 cytotoxicity assay; [2]): > 10000 nM
- EC50 [1]: 220 nM

Structure (SMILES): COc1cc2c(cc1OCCCOc1ccccc1)[C@H]1CCC(C)(C)N1n1cc(C(=O)O)c(=O)cc1-2 [Example 61]
- CC50 at 5 days (MT-4 cytotoxicity assay; [2]): 6000 nM
- EC50 [1]: 0.94 nM

Structure (SMILES): COCc1cc2c(cc1N1CC[C@@H](COC)C1)[C@H]1CCC(C)(C)N1n1cc(C(=O)O)c(=O)cc1-2 [Compound 117, (R)-11-(methoxymethyl)-12-((R)-3-(methoxymethyl)pyrrolidin-1-yl)-3,3-dimethyl-8-oxo-2,3,8,13b-tetrahydro-1H-pyrido[2,1-a]pyrrolo[1,2-c]phthalazine-7-carboxylic acid]
- CC50 at 5 days (MT-4 cytotoxicity assay; [2]): 9700 nM
- EC50 [1]: 5.3 nM

Structure (SMILES): COCc1cc2c(cc1OCCn1nc3ccccn3c1=O)[C@H]1CCC(C)(C)N1n1cc(C(=O)O)c(=O)cc1-2 [Example 95, (R)-11-(methoxymethyl)-3,3-dimethyl-8-oxo-12-(2-(3-oxo-[1,2,4]triazolo[4,3-a]pyridin-2(3H)-yl)ethoxy)-2,3,8,13b-tetrahydro-1H-pyrido[2,1-a]pyrrolo[1,2-c]phthalazine-7-carboxylic acid]
- CC50 at 5 days (MT-4 cytotoxicity assay; [2]): > 10000 nM
- EC50 [1]: 4.6 nM

Structure (SMILES): CC1(C)CC[C@@H]2c3cc(-c4cnn(C5COC5)c4)c(OC(F)(F)F)cc3-c3cc(=O)c(C(=O)O)cn3N21 [Example 93, (R)-3,3-dimethyl-12-(1-(oxetan-3-yl)-1H-pyrazol-4-yl)-8-oxo-11-(trifluoromethoxy)-2,3,8,13b-tetrahydro-1H-pyrido[2,1-a]pyrrolo[1,2-c]phthalazine-7-carboxylic acid]
- CC50 at 5 days (MT-4 cytotoxicity assay; [2]): > 10000 nM
- EC50 [1]: 4.4 nM

Structure (SMILES): COCCCOc1cc2c(cc1Cl)-c1cc(=O)c(C(=O)O)cn1N1C2CCC1(C)C (centres unmarked) [Example 4, 11-chloro-12-(3-methoxypropoxy)-3,3-dimethyl-8-oxo-2,3,8,13b-tetrahydro-1H-pyrido[2,1-a]pyrrolo[1,2-c]phthalazine-7-carboxylic acid]
- CC50 at 5 days (MT-4 cytotoxicity assay; [2]): > 10000 nM
- EC50 [1]: 3.9 nM

Structure (SMILES): COCCCOc1cc2c(cc1Cl)-c1cc(=O)c(C(=O)O)cn1N1[C@@H]2CCC12CC2 (single isomer, unassigned) [Example 56]
- CC50 at 5 days (MT-4 cytotoxicity assay; MT-4 CC50): > 10000 nM
- EC50 [1]: 1.5 nM

Structure (SMILES): COCCCOc1cc2c(cc1Cl)-c1cc(=O)c(C(=O)O)cn1N1[C@H]2COCC1(C)C (single isomer, unassigned) [Example 39]
- CC50 at 5 days (MT-4 cytotoxicity assay; [2]): > 10000 nM
- EC50 [1]: 680 nM

Structure (SMILES): COCCCOc1cc2c(cc1C1CC1)-c1cc(=O)c(C(=O)O)cn1N1[C@@H]2CCC1(C)C [Example 28, (R)-11-cyclopropyl-12-(3-methoxypropoxy)-3,3-dimethyl-8-oxo-2,3,8,13b-tetrahydro-1H-pyrido[2,1-a]pyrrolo[1,2-c]phthalazine-7-carboxylic acid]
- CC50 at 5 days (MT-4 cytotoxicity assay; [2]): 8700 nM
- EC50 [1]: 0.78 nM

Structure (SMILES): CC1(C)CC[C@@H]2c3cc(C#CC(C)(C)S(C)(=O)=O)c(OC(F)(F)F)cc3-c3cc(=O)c(C(=O)O)cn3N21 [Example 89, (R)-3,3-dimethyl-12-(3-methyl-3-(methylsulfonyl)but-1-yn-1-yl)-8-oxo-11-(trifluoromethoxy)-2,3,8,13b-tetrahydro-1H-pyrido[2,1-a]pyrrolo[1,2-c]phthalazine-7-carboxylic acid]
- CC50 at 5 days (MT-4 cytotoxicity assay; [2]): > 10000 nM
- EC50 [1]: 13.7 nM

Structure (SMILES): COCCCOc1cc2c(cc1Cl)-c1cc(=O)c(C(=O)O)cn1N1[C@@H]2CC1(C)C [Example 46, (R)-10-chloro-11-(3-methoxypropoxy)-2,2-dimethyl-7-oxo-1,2,7,12b-tetrahydroazeto[2,1-a]pyrido[1,2-c]phthalazine-6-carboxylic acid and (S)-10-chloro-1-(3-methoxypropoxy)-2,2-dimethyl-7-oxo-1,2,7,12b-tetrahydroazeto[2,1-a]pyrido[1,2-c]phthalazine-6-carboxylic acid]
- CC50 at 5 days (MT-4 cytotoxicity assay; [2]): > 10000 nM
- EC50 [1]: 7.8 nM

Structure (SMILES): COCC12CC(COc3cc4c(cc3OC(F)F)-c3cc(=O)c(C(=O)O)cn3N3[C@@H]4CCC3(C)C)(C1)C2 [Compound 105, (R)-11-(difluoromethoxy)-12-((3-(methoxymethyl)bicyclo[1.1.1]pentan-1-yl)methoxy)-3,3-dimethyl-8-oxo-2,3,8,13b-tetrahydro-1H-pyrido[2,1-a]pyrrolo[1,2-c]phthalazine-7-carboxylic acid]
- CC50 at 5 days (MT-4 cytotoxicity assay; [2]): > 10000 nM
- EC50 [1]: 1.4 nM

Structure (SMILES): CC1(C)CC[C@@H]2c3cc(C#Cc4ccc(N)nc4)c(OC(F)F)cc3-c3cc(=O)c(C(=O)O)cn3N21 [Compound 106, (R)-12-((6-aminopyridin-3-yl)ethynyl)-11-(difluoromethoxy)-3,3-dimethyl-8-oxo-2,3,8,13b-tetrahydro-1H-pyrido[2,1-a]pyrrolo[1,2-c]phthalazine-7-carboxylic acid]
- CC50 at 5 days (MT-4 cytotoxicity assay; [2]): 7500 nM
- EC50 [1]: 0.37 nM

Structure (SMILES): COCCCOc1cc2c(cc1OC(F)(F)F)-c1cc(=O)c(C(=O)O)cn1N1[C@@H]2CCC1(C)C [Example 79, (R)-12-(3-methoxypropoxy)-3,3-dimethyl-8-oxo-11-(trifluoromethoxy)-2,3,8,13b-tetrahydro-1H-pyrido[2,1-a]pyrrolo[1,2-c]phthalazine-7-carboxylic acid]
- CC50 at 5 days (MT-4 cytotoxicity assay; [2]): > 10000 nM
- EC50 [1]: 1.1 nM

Structure (SMILES): COCCCOc1cc2c(cc1OC(F)F)-c1cc(=O)c(C(=O)O)cn1N1[C@H]2CCC1(C)C (single isomer, unassigned) [Example 20]
- CC50 at 5 days (MT-4 cytotoxicity assay; [2]): > 10000 nM
- EC50 [1]: 43 nM

Structure (SMILES): CC1(COc2cc3c(cc2Cl)-c2cc(=O)c(C(=O)O)cn2N2[C@@H]3CCC2(C)C)COC1 [Example 49, (R)-11-chloro-3,3-dimethyl-12-((3-methyloxetan-3-yl)methoxy)-8-oxo-2,3,8,13b-tetrahydro-1H-pyrido[2,1-a]pyrrolo[1,2-c]phthalazine-7-carboxylic acid]
- CC50 at 5 days (MT-4 cytotoxicity assay; [2]): > 10000 nM
- EC50 [1]: 3.8 nM

Structure (SMILES): COc1cc2c(cc1OCC1CC(F)(F)C1)[C@H]1CCC(C)(C)N1n1cc(C(=O)O)c(=O)cc1-2 [Example 50, (R)-12-((3,3-difluorocyclobutyl)methoxy)-11-methoxy-3,3-dimethyl-8-oxo-2,3,8,13b-tetrahydro-1H-pyrido[2,1-a]pyrrolo[1,2-c]phthalazine-7-carboxylic acid]
- CC50 at 5 days (MT-4 cytotoxicity assay; [2]): > 10000 nM
- EC50 [1]: 1 nM

Structure (SMILES): COCCCOc1cc2c(cc1Cl)-c1cc(=O)c(C(=O)O)cn1N1CCCC(C)(C)C21 (centres unmarked) [Example 38, 13-chloro-12-(3-methoxypropoxy)-10,10-dimethyl-2-oxo-2,7,8,9,10,10a-hexahydrodipyrido[2,1-a:1′,2′-c]phthalazine-3-carboxylic acid]
- CC50 at 5 days (MT-4 cytotoxicity assay; [2]): 9900 nM
- EC50 [1]: 27 nM

Structure (SMILES): CC1(C)CC[C@@H]2c3cc(OCCCOC(F)(F)F)c(Cl)cc3-c3cc(=O)c(C(=O)O)cn3N21 [Example 55, (R)-11-chloro-3,3-dimethyl-8-oxo-12-(3-(trifluoromethoxy)propoxy)-2,3,8,13b-tetrahydro-1H-pyrido[2,1-a]pyrrolo[1,2-c]phthalazine-7-carboxylic acid]
- CC50 at 5 days (MT-4 cytotoxicity assay; [2]): 6800 nM
- EC50 [1]: 3.7 nM

Structure (SMILES): COCCCOc1cc2c(cc1Cl)-c1cc(=O)c(C(=O)O)cn1N1[C@H]2CCC12CC2 (single isomer, unassigned) [Example 57]
- CC50 at 5 days (MT-4 cytotoxicity assay; MT-4 CC50): > 10000 nM
- EC50 [1]: > 1000 nM

Structure (SMILES): COCCCOc1cc2c(cc1Cl)-c1cc(=O)c(C(=O)O)cn1N1[C@H]2CCC1(C)C (single isomer, unassigned) [Example 6]
- CC50 at 5 days (MT-4 cytotoxicity assay; [2]): > 10000 nM
- EC50 [1]: 300 nM

Structure (SMILES): COCCCOc1cc2c(cc1Cl)-c1cc(=O)c(C(=O)O)cn1[C@H]1[C@H]2CCC1(C)C (single isomer, unassigned) [Example 35]
- CC50 at 5 days (MT-4 cytotoxicity assay; [2]): > 10000 nM
- EC50 [1]: 49 nM

Structure (SMILES): COCCCOc1cc2c(cc1OC(C)(C)C)-c1cc(=O)c(C(=O)O)cn1N1[C@@H]2CCC1(C)C [Example 25, (R)-11-(tert-butoxy)-12-(3-methoxypropoxy)-3,3-dimethyl-8-oxo-2,3,8,13b-tetrahydro-1H-pyrido[2,1-a]pyrrolo[1,2-c]phthalazine-7-carboxylic acid]
- CC50 at 5 days (MT-4 cytotoxicity assay; [2]): > 10000 nM
- EC50 [1]: 160 nM

Structure (SMILES): COCc1cc2c(cc1C#CC(C)(C)O)[C@H]1CCC(C)(C)N1n1cc(C(=O)O)c(=O)cc1-2 [Example 70, (R)-12-(3-hydroxy-3-methylbut-1-yn-1-yl)-11-(methoxymethyl)-3,3-dimethyl-8-oxo-2,3,8,13b-tetrahydro-1H-pyrido[2,1-a]pyrrolo[1,2-c]phthalazine-7-carboxylic acid]
- CC50 at 5 days (MT-4 cytotoxicity assay; [2]): > 10000 nM
- EC50 [1]: 21.1 nM

Structure (SMILES): COc1cc2c(cc1C#Cc1cncn1C)[C@H]1CCC(C)(C)N1n1cc(C(=O)O)c(=O)cc1-2 [Example 42, (R)-11-methoxy-3,3-dimethyl-12-((1-methyl-1H-imidazol-5-yl)ethynyl)-8-oxo-2,3,8,13btetrahydro-1H-pyrido[2,1-a]pyrrolo[1,2-c]phthalazine-7-carboxylic acid]
- CC50 at 5 days (MT-4 cytotoxicity assay; [2]): > 10000 nM
- EC50 [1]: 4.8 nM
